Data taken from ChEMBL document CHEMBL1201862, “PubChem BioAssay data set” (2004).
Active and inactive are the calls of the source.

Assays:
[1] = molecular target: T1, Corticotropin-releasing factor receptor 2/Corticotropin-releasing factor-binding protein (Homo sapiens, UniProt P24387+Q13324); assay: activators of CRF receptor 2 with binding protein – uHTS hits, confirmation (AID 602473); assay type: functional; settings: read-out: EC50_Mean
T1 sequence (Q13324 whole entry): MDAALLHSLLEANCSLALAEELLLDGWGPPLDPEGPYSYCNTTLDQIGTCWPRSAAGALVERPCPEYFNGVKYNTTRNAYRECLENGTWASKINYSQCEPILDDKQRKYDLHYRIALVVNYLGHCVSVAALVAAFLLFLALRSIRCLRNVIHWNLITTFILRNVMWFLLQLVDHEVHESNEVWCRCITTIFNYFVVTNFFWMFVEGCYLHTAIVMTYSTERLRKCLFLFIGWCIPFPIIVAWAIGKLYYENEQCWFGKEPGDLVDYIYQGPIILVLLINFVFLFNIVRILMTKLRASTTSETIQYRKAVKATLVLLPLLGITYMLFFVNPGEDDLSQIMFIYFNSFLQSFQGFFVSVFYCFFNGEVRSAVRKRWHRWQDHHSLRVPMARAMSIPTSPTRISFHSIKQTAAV
T1 sequence (P24387 whole entry): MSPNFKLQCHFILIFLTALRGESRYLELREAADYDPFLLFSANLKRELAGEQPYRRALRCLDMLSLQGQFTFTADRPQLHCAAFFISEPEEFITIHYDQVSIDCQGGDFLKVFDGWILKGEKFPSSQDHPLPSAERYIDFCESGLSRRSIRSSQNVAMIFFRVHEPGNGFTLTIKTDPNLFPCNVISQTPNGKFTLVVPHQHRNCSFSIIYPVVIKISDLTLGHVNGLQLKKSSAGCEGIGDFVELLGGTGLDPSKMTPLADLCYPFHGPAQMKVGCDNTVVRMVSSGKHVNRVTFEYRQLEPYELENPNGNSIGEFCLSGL

[2] = CRF-BP/CRF-R2 complex antagonists, dose response, cell-based, uHTS hits, 384-well (AID 651639); assay type: functional, Homo sapiens; settings: read-out: IC50_Mean
[3] = molecular target: T1, Corticotropin-releasing factor receptor 2/Corticotropin-releasing factor-binding protein; assay: Dose Response confirmation of uHTS hits for small molecule antagonists of the CRF-binding protein and CRF-R2 receptor complex.; assay type: functional; settings: read-out: IC50_Mean
[4] = molecular target: T2, Nuclear receptor subfamily 0 group B member 1 (Homo sapiens, UniProt P51843); assay: Luminescence-based cell-based high throughput dose response assay for inhibitors of the orphan nuclear receptor subfamily 0, group B, member 1 (DAX1; NR0B1). [Related pubchem assays (depositor defined):AID504766, AID504790]; assay type: functional
T2 sequence (P51843 whole entry): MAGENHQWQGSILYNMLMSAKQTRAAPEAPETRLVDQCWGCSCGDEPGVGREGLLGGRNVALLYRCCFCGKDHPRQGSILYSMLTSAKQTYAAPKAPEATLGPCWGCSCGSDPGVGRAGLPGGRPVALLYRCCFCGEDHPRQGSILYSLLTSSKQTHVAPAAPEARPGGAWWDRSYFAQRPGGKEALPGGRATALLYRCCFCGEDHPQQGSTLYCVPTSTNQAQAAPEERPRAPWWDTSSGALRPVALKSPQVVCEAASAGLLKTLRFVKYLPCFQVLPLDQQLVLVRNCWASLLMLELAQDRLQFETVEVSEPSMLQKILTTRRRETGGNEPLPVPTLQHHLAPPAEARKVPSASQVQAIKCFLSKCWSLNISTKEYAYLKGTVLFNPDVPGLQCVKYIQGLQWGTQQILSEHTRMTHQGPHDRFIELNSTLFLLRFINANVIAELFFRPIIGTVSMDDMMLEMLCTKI

HEK293 = assay: cells; assay type: functional, cell-based; settings: Homo sapiens
Caspase-3 = molecular target: T3, Caspase-3 (Homo sapiens, UniProt P42574); assay type: functional;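 note: Dose-response selectivity test against caspase-3 for candidate inhibitors of sentrin-specific proteases (SENPs)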
T3 sequence (P42574 whole entry): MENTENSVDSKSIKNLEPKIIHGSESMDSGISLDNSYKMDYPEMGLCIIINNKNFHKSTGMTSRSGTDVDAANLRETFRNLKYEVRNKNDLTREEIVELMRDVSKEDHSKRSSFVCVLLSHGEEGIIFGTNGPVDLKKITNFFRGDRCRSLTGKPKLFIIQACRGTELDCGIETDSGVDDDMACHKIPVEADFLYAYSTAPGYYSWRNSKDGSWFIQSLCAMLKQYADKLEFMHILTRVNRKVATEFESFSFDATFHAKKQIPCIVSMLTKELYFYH

[5] = molecular target: T4, Sentrin-specific protease 6 (Homo sapiens, UniProt Q9GZR1); assay type: functional;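 note: Luminescence-based dose-response confirmatory assay of SENP6 inhibition, following up an ultra-high-throughput screen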
T4 sequence (Q9GZR1 whole entry): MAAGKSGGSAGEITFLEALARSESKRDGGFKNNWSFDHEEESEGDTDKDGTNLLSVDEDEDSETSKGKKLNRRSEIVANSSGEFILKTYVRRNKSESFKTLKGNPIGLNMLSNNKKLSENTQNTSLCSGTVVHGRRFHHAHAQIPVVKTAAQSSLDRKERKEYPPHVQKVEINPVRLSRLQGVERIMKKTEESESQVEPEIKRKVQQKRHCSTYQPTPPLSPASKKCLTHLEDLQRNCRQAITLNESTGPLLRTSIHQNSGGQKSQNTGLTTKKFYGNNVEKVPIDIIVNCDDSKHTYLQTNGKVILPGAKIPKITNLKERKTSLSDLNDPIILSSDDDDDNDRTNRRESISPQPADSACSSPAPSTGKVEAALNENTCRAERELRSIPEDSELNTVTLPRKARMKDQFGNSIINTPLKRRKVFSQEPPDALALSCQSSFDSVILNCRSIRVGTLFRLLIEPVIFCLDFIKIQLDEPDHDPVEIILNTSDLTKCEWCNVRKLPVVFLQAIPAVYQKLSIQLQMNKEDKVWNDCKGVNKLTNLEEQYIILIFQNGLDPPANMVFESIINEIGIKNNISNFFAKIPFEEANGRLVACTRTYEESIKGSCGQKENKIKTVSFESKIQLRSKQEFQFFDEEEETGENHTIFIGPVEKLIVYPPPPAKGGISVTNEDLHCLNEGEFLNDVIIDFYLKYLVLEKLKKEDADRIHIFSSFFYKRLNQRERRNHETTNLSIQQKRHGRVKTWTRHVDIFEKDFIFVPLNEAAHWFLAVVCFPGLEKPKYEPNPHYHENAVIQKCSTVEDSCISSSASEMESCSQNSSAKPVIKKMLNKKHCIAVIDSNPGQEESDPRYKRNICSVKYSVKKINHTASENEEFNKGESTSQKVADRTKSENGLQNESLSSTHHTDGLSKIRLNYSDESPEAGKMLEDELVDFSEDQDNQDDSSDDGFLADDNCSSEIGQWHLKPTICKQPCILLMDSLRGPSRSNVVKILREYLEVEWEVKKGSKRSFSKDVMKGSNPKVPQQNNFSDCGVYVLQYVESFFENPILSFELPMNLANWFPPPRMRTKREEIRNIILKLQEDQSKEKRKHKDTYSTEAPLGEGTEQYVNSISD

[6] = molecular target: T5, Sentrin-specific protease 8 (Homo sapiens, UniProt Q96LD8); assay type: functional;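 note: luminescence read-out of SENP8 inhibition, dose-response confirmation following an ultra-high-throughput screen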
T5 sequence (Q96LD8 whole entry): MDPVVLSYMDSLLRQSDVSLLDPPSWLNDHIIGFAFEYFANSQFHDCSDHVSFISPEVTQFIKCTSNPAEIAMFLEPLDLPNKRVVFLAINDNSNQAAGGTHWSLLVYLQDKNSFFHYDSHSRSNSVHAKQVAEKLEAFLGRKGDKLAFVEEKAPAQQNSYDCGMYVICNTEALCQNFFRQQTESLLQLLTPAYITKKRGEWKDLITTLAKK

[7] = molecular target: T6, Sentrin-specific protease 7 (Homo sapiens, UniProt Q9BQF6); assay type: functional;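 note: Luminescence-based dose-response confirmation of ultra-high-throughput screening hits, measuring inhibition of SENP7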
T6 sequence (Q9BQF6 whole entry): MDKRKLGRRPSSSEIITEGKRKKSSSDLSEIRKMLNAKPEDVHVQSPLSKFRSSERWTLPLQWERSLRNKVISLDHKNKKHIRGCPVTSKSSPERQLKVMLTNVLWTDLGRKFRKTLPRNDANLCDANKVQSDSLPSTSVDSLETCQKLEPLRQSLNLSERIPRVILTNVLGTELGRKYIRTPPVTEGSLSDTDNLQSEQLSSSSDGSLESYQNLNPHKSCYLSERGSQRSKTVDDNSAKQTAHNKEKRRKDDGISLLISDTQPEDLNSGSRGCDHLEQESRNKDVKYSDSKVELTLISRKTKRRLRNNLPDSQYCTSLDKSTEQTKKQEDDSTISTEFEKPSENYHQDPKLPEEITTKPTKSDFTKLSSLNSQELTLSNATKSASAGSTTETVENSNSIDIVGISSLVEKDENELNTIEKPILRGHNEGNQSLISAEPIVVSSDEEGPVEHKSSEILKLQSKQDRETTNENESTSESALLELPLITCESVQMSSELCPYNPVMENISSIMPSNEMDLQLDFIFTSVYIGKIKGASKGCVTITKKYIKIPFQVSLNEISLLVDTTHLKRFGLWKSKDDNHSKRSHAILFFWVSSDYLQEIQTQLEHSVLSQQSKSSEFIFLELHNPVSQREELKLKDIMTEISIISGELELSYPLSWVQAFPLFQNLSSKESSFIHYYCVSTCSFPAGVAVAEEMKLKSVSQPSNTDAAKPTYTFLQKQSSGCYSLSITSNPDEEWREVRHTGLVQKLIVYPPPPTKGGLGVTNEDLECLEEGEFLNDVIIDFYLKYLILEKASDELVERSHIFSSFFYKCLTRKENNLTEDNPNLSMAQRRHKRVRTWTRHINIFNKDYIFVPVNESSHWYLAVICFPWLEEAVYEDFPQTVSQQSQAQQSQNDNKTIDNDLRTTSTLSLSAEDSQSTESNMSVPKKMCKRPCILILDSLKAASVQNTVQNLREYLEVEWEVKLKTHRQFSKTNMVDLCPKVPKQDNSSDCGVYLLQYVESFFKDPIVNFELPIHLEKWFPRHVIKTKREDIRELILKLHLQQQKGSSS

[8] = ARNT/TACC3 interaction disruptors, potency, confirmation, biochemical, AlphaScreen, cherry-picked samples (AID 651703); assay type: functional, Homo sapiens;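 note: His-tagged ARNT PAS-B domain paired with GST-TACC3 E629A dimer coactivator fragment; potency of inhibitors that break up the complex and lower AlphaScreen signal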
[9] = growth suppression of beta-catenin-knockout colon cells, dose response, cell-based, HCT116, human colon tumor (AID 1045); assay type: functional;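 note: HCT116 colon tumor cells with beta catenin knocked out; cells exposed to compound for 60 hours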
[10] = growth suppression of PTEN-null colon cells, dose response, cell-based, HCT116 PTEN knockout (AID 1047); assay type: functional;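 note: HCT116 colon tumor cells with PTEN knocked out; cells exposed to compound for 60 hours before readout; potency for loss of cell viability measured by luminescence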
Large T antigen = Large T antigen (Simian virus 40, UniProt P03070); assay type: functional, Betapolyomavirus macacae;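 note: Confirmatory-stage PubChem screen for compounds that inhibit SV40 T antigen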
[11] = molecular target: T7, Rac GTPase-activating protein 1 (Homo sapiens, UniProt Q9H0H5); assay: MgcRacGAP GTPase-activating activity inhibitors, confirmation, biochemical, ADP Hunter fluorescence, primary and confirmatory (AID 624330); assay type: functional
T7 sequence (Q9H0H5 whole entry): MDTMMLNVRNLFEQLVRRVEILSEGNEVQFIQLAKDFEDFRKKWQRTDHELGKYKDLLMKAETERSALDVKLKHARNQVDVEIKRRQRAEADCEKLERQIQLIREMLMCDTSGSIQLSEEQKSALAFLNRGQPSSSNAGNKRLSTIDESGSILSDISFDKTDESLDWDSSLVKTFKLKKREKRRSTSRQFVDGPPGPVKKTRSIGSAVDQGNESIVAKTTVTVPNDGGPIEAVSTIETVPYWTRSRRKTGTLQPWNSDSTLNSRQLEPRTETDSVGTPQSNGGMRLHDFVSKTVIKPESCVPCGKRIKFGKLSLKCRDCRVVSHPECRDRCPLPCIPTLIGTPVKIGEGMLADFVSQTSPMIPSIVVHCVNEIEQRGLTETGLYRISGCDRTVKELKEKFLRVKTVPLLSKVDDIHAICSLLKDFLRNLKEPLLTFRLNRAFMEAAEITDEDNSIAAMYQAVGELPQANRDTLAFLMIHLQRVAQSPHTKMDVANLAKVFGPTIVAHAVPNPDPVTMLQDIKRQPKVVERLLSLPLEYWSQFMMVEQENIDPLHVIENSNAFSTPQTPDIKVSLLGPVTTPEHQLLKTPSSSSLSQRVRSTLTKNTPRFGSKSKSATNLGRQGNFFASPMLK

Large T antigen, sequence (P03070 whole entry): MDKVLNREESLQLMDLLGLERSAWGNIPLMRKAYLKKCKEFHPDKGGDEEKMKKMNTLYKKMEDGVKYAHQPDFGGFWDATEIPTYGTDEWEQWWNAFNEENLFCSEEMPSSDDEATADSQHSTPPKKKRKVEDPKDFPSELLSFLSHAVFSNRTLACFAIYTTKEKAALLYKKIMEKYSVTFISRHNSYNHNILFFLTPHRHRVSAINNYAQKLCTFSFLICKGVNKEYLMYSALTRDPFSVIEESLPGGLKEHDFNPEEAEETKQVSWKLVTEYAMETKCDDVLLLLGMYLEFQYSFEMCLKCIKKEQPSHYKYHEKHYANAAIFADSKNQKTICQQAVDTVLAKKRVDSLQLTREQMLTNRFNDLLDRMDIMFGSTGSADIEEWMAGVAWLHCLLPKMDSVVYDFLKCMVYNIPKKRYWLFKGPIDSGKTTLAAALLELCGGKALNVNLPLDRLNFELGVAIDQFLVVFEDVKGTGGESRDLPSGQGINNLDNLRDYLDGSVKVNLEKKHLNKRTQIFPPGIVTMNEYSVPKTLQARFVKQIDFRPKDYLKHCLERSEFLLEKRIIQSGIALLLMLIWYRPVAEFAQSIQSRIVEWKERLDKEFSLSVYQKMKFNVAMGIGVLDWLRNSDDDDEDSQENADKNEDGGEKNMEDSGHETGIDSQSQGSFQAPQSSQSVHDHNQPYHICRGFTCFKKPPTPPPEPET

| IC50 (Caspase-3) | IC50 [5] | IC50 [7] | Compound | IC50 [4] | IC50 (HEK293) | IC50 [6] | also measured |
| --- | --- | --- | --- | --- | --- | --- | --- |
| – | – | – | O=C(CCCCn1c(=O)c2ccccc2n(Cc2ccc(F)cc2Cl)c1=O)NCc1ccco1 | – | – | – | EC50 [1]: > 53 µM (inactive); IC50 [2]: > 20 µM (inactive); IC50 [3]: 19.4 µM (active) |
| – | – | – | COc1ccc(N2CCN(C(=O)C3CCN(S(=O)(=O)c4ccc(C)cc4)CC3)CC2)cc1 | > 67.5 µM (inactive) | > 67.5 µM (inactive) | – | – |
| 17.7 µM (active) | 4.35 µM (active) | 2.96 µM (active) | COC(=O)c1sc(-c2ccc(Cl)cc2)cc1N | – | – | 67.1 µM (active) | – |
| – | – | – | Cc1ccc(NC(=O)c2ccccc2NS(=O)(=O)c2ccc(F)cc2)cc1S(=O)(=O)N1CCCCC1 | – | – | – | EC50 [1]: 4.33 µM (active); IC50 [2]: 6.13 µM (active); IC50 [3]: 2.59 µM (active) |
| – | – | – | CN(Cc1ccccc1Cl)C(=O)CCNC(=O)c1ccco1 | > 67.5 µM (inactive) | > 67.5 µM (inactive) | – | – |
| – | – | – | CCC[C@H]1CN(c2ccccc2)C(=O)[C@@H]1CC(=O)Nc1ccc(Br)cc1 | > 67.5 µM (inactive) | > 67.5 µM (inactive) | – | – |
| – | – | – | O=C(Nc1ccc2c(c1)[C@@H]1C[C@H](CC(=O)N3CCc4ccccc4C3)O[C@@H](CO)[C@@H]1O2)c1ccc2c(c1)OCO2 | – | – | – | AC50 [8]: 134 µM (active) |
| – | – | – | CCOc1cc(/C=N/NC(=O)CSc2cccc3cccnc23)ccc1O | – | – | – | IC50 (Large T antigen): 7.45 µM (active); IC50 [11]: 34.2 µM (active); AC50 [8]: 90 µM (active) |
| 29.8 µM (active) | 12.8 µM (active) | 4.19 µM (active) | C(=N\Nc1nc(-c2ccccc2)cs1)/c1cccs1 | – | – | 31.6 µM (active) | – |

| Compound | IC50 (Caspase-3) | IC50 [5] | IC50 [7] | IC50 [4] | IC50 (HEK293) | IC50 [6] | also measured |
| --- | --- | --- | --- | --- | --- | --- | --- |
| CCCSC(=N)N/N=C/c1cc(C)ccc1O | 46.3 µM (active) | 93.5 µM (active) | 11.4 µM (active) | – | – | > 100 µM (inactive) | EC50 [9]: 30 µM (active); EC50 [10]: 32.5 µM (active) |
